# Measured values: patent US20170058314A1, “NOVEL METHODOLOGY FOR IDENTIFYING ANTI-PERSISTER ACTIVITY AND ANTIMICROBIAL SUSCEPTIBILITY FOR BORRELIA BURGDORFERI AND OTHER BACTERIA” (priority 2014, published 2017)
# What was measured:
# [1] = system: stationary phase B. burgdorferi persisters (strain B31); test: SYBR Green I/PI viability assay (plate reader), FDA-approved drug library screen; details: for Ratio of Green/Red fluorescence, Primary screening / Ratio of Green/Red fluorescence, Rescreening (first column) / Ratio of Green/Red fluorescence, Rescreening (second column): 50 μM, 7 days, stationary phase; for viability at 50 µM: Borreliella burgdorferi, 168 h, read-out: Residual viable cells (regression equation, SYBR Green I/PI assay)
# [2] = system: stationary phase B. burgdorferi persisters (strain B31); test: epifluorescence microscope counting after SYBR Green I/PI staining, FDA drug screen; details: Borreliella burgdorferi, 168 h, read-out: Residual viable cells (epifluorescence microscope counting)
# [3] = system: B. burgdorferi (growing, strain B31); test: MIC determination, standard microdilution method; type: cell-based, Borrelia burgdorferi; details: MIC test
# [4] = system: log phase and stationary phase B. burgdorferi culture; test: Antibiotic exposure assay, SYBR Green I/PI (drugs alone and combinations); details: for viability at 10 µg/mL: Borreliella burgdorferi, 168 h, read-out: Live Cell % (residual viable B. burgdorferi), ten-day-old stationary phase culture enriched with micro-colonies, 10 μg/mL each drug, 7 days
# Procedure: To qualitatively determine the effect of antibiotics, 10 μL of each compound from the pre-diluted plate or pre-diluted stock was added to stationary phase B. burgdorferi culture in the 96-well plate. The final volume per well was adjusted to 100 μL at a concentration of 10 μg/mL for each antibiotic. Plates were sealed and placed in a 33° C. incubator for 7 days. The SYBR Green I/PI viability assay was used to assess the live and dead cells after antibiotic exposure as described (Feng, Wang, Shi, et al., 2014). Briefly, 10 μL of SYBR Green I (10,000×stock, Invitrogen) was mixed with 30 μL propidium iodide (PI, 20 mM) into 1.0 mL of sterile dH2O. Then, 10 μL of staining mixture was added to each well and mixed thoroughly. The plates were incubated at room temperature in the dark for 15 minutes followed by plate reading at excitation wavelength at 485 nm and the fluorescence intensity at 535 nm (green emission) and 635 nm (red emission) in microplate reader (HTS 7000 plus Bio Assay Reader, PerkinElmer Inc., USA). With least-square fitting analysis, the regression equation and regression curve of the relationship between percentage of live bacteria and green/red fluorescence ratios was obtained. The regression equation was used to calculate the percentage of live cells in each well of the 96-well plate.
# To qualitatively determine the effect of antibiotics, 10 μL of each compound (final concentration 50 μM) from the pre-diluted plate or pre-diluted stock was added to round body form or stationary phase B. burgdorferi culture in the 96-well plate. The final volume per well was adjusted to 100 μL. Plates were sealed and placed in a 33° C. incubator for 7 days. The SYBR Green I/PI viability assay was used to assess the live and dead cells after antibiotic exposure as described (Feng, Wang, Shi, et al., 2014). Briefly, 10 μL of SYBR Green I (10,000×stock, Invitrogen) was mixed with 30 μL propidium iodide (PI, 20 mM, Sigma-Aldrich) into 1.0 mL of sterile dH2O. Then, 10 μL staining mixture was added to each well and mixed thoroughly. The plates were incubated at room temperature in the dark for 15 minutes followed by plate reading at excitation wavelength at 485 nm and the fluorescence intensity at 535 nm (green emission) and 635 nm (red emission) in microplate reader (HTS 7000 plus Bio Assay Reader, PerkinElmer Inc., USA). With least-square fitting analysis, the regression equation and regression curve of the relationship between percentage of live and dead bacteria as shown in green/red fluorescence ratios was obtained. The regression equation was used to calculate the percentage of live cells in each well of the 96-well plate.
# Round body form and ten day old stationary phase (in brackets) B. burgdorferi culture was treated with 10 μg/mL drugs or their combinations for 7 days. Residual viable B. burgdorferi was calculated according to the regression equation and ratio of Green/Red fluorescence obtained by SYBR Green I/PI assay as described (Feng, Wang, Shi, et al., 2014). Direct microscopy counting was employed to rectify the results of the SYBR Green I/PI assay. […] Abbreviation: Dox, doxcycline; CefP, cefoperazone; DAP, daptomycin; CefM, cefmetazole; Scp, sulfachlorpyridazine; Art, artemisinin; Nft, nitrofurantoin.
# [5] = system: round body form of B. burgdorferi; test: SYBR Green I/PI assay on amoxicillin-induced round body form
# [6] = system: S. aureus strains (Newman, USA300, CA-409, CA-127, NY-315); test: Rapid SYBR Green/PI antibiotic susceptibility test; type: cell-based, Staphylococcus aureus; details: for cut-off (averaged proportion of killed cells) for resistant strains / cut-off (averaged proportion of killed cells) for susceptible strains: 100 μg/mL, 1.5 hours; for percent killed, sensitive Newman strain: kanamycin 25, erythromycin 400, ciprofloxacin 50, gentamicin 400 μg/mL
# [7] = 10 μg/mL drugs or combinations, 7 days
compound,measurement,setting,value
CC(=O)OCC1=C(C(=O)O)N2C(=O)[C@@H](NC(=O)Cc3cccs3)[C@H]2SC1 [Cephalothin],"Ratio of Green/Red fluorescence, Primary screening",[1],6.74
same,"Ratio of Green/Red fluorescence, Rescreening (first column)",[1],6.49
same,"Ratio of Green/Red fluorescence, Rescreening (second column)",[1],6.55
same,viability at 50 µM,[1],40%
same,viability at 50 µM,[2],49%
"Clc1ccc(COC(Cn2ccnc2)c2ccc(Cl)cc2Cl)c(Cl)c1 (centres unmarked) [Mcz, miconazole]","sensitivity of log phase / multiplying B. burgdorferi (words, FIG. 12)",[3],less potent
same,viability at 10 µg/mL,[4],65%
CN(C)[C@@H]1C(O)=C(C(N)=O)C(=O)[C@@]2(O)C(O)=C3C(=O)c4c(O)cccc4[C@@](C)(O)[C@H]3C[C@@H]12 [Tetracycline],viability at 50 µM,[1],50%
same,viability at 50 µM,[2],54%
"O=C1CN(/N=C/c2ccc([N+](=O)[O-])o2)C(=O)N1 [Nft, nitrofurantoin]","Live cell %, ten day old stationary phase culture (in brackets)",[4]; [7],82%
same,"Live cell %, round body form",[5]; [7],33%
CC[C@H]1OC(=O)[C@H](C)[C@@H](O[C@H]2C[C@@](C)(OC)[C@@H](O)[C@H](C)O2)[C@H](C)[C@@H](O[C@@H]2O[C@H](C)C[C@H](N(C)C)[C@H]2O)[C@](C)(O)C[C@@H](C)CN(C)[C@H](C)[C@@H](O)[C@]1(C)O [Azithromycin],viability at 50 µM,"[5]; Borreliella burgdorferi, 168 h, read-out: Residual viable cells (SYBR Green I/PI assay)",47%
same,"Ratios of green/red fluorescence, Primary screening","[5]; round body form, 50 μM, 7 days",6.79
same,"Ratios of green/red fluorescence, Rescreening (first column)","[5]; round body form, 50 μM, 7 days",6.52
same,"Ratios of green/red fluorescence, Rescreening (second column)","[5]; round body form, 50 μM, 7 days",6.42
same,"Ratio of Green/Red fluorescence, Primary screening",[1],8.33
same,"Ratio of Green/Red fluorescence, Rescreening (first column)",[1],8.10
same,"Ratio of Green/Red fluorescence, Rescreening (second column)",[1],7.92
same,viability at 50 µM,[1],80%
same,viability at 50 µM,[2],77%
"CO[C@H]1/C=C/O[C@@]2(C)Oc3c(C)c(O)c4c(O)c(c(/C=N/N5CCN(C)CC5)c(O)c4c3C2=O)NC(=O)/C(C)=C\C=C\[C@H](C)[C@H](O)[C@@H](C)[C@@H](O)[C@@H](C)[C@H](OC(C)=O)[C@@H]1C [Rif, rifampin]",viability at 10 µg/mL,[4],82%
gentamicin,cut-off (averaged proportion of killed cells) for resistant strains,[6],−0.2
same,cut-off (averaged proportion of killed cells) for susceptible strains,[6],−0.3
same,"percent killed, resistant strain CA-409","[6]; 30 minutes, kanamycin 25, ciprofloxacin 50, gentamicin 400 μg/mL",10%
same,"percent killed, sensitive Newman strain",[6]; 30 minutes,27%
CC1(C)S[C@@H]2[C@H](NC(=O)C3(N)CCCCC3)C(=O)N2[C@H]1C(=O)O [Cyclacillin],"Ratio of Green/Red fluorescence, Primary screening",[1],6.81
same,"Ratio of Green/Red fluorescence, Rescreening (first column)",[1],6.88
same,"Ratio of Green/Red fluorescence, Rescreening (second column)",[1],7.64
same,viability at 50 µM,[1],53%
same,viability at 50 µM,[2],51%
"CC1COc2c(N3CCN(C)CC3)c(F)cc3c(=O)c(C(=O)O)cn1c23 (centres unmarked) [Ofl, ofloxacin]",viability at 10 µg/mL,[4],81%
CC[C@H]1OC(=O)[C@H](C)[C@@H](O[C@H]2C[C@@](C)(OC)[C@@H](O)[C@H](C)O2)[C@H](C)[C@@H](O[C@@H]2O[C@H](C)C[C@H](N(C)C)[C@H]2O)[C@](C)(O)C[C@@H](C)C(=O)[C@H](C)[C@@H](O)[C@]1(C)O [erythromycin],cut-off (averaged proportion of killed cells) for resistant strains,[6],−0.1
same,cut-off (averaged proportion of killed cells) for susceptible strains,[6],−0.4
same,"percent killed, resistant strain NY-315","[6]; 30 minutes, kanamycin 25, erythromycin 400 μg/mL",17%
same,"percent killed, sensitive Newman strain",[6]; 30 minutes,50%
